From patent publication US20230078702A1, “USE OF MITOXANTRONE HYDROCHLORIDE LIPOSOME FOR TREATING BREAST CANCER” (CSPC ZHONGQI PHARMACEUTICAL TECHNOLOGY (SHIJIAZHUANG) CO., …, priority 2020, published 2023)
Where a name gives a salt, the structure may show the parent alone.

Assays:
[1] = test system: patients with advanced recurrent or metastatic breast cancer; test: Efficacy evaluation (RECIST 1.1) in randomized, open-labeled, active controlled clinical study; type: in vivo, human; set-up: disease control rate (PR+SD): concentration or dose not given beside the values
Protocol: A tumor assessment was performed at baseline.
During the treatment period, the efficacy evaluation was performed once every two cycles; in addition, when the efficacy evaluation result was PR or CR, the efficacy should be radiologically confirmed after 4 weeks. After the completion of the treatment, the evaluation was performed every 3 months until disease progression. Tumor evaluation was performed according to RECIST 1.1 criteria.
Primary efficacy endpoint: objective response rate (ORR), referring to the ratio of subjects reaching PR and CR.
Secondary efficacy endpoint: progression-free survival (PFS), referring to the time from the start of randomization to disease progression or death.

[2] = test system: patients with advanced recurrent or metastatic breast cancer; settings: human, in vivo
Protocol: The study is a randomized, open-labeled, active controlled, single center study to evaluate the safety and efficacy of the mitoxantrone hydrochloride liposome injection in patients with advanced recurrent or metastatic breast cancer.
Investigational product: mitoxantrone hydrochloride liposome injection (PLM60 (10 mg/10 mL/vial)) was added to 250 mL of 5% glucose at a dose of 20 mg/m^2 and was administered intravenously over 1 h.
Reference product: mitoxantrone hydrochloride injection (5 mg/5 mL/vial, manufactured by Sichuan Sunnyhope Pharmaceutical, Inc., supplied by CSPC ZHONGQI Pharmaceutical Technology (Shijiazhuang) Co., Ltd., Lot No. 1501201) was added to 100 mL of 5% glucose injection at a dose of 14 mg/m^2 and was administered intravenously over 30 min.
The safety assessment indicators included: vital signs, adverse events, laboratory tests (complete blood test, routine urinalysis, blood biochemistry, electrocardiogram, echocardiogram), and early withdrawal. Safety assessment criteria: NCI-CTC 4.0.
For the drug mitoxantrone, the most serious adverse event is cardiotoxicity. Clinical studies and practical observations have shown that the cardiotoxicity caused by anthracyclines are mainly progressive and irreversible. Especially anthracyclines can easily cause cardiac damage at first use. Cardiotoxicity is a common concern for clinicians since it is a long-term cumulative dose-limiting toxicity. The incidence of increased troponin T and the incidence of increased brain natriuretic peptide were used as indices for examining cardiotoxicity in this trial. The change of the cardiac troponin T level can reflect myocardium damage with high sensitivity; brain natriuretic peptide is a polypeptide hormone secreted by cardiomyocytes in the heart ventricles in response to stretching caused by increased ventricular blood volume and increased ventricular pressure.

O=C1c2c(O)ccc(O)c2C(=O)c2c(NCCNCCO)ccc(NCCNCCO)c21 [Control group, mitoxantrone hydrochloride]
Progression-free survival rate ([1]; 3 months, FAS (N = 60)): 26.7% | Progression-free survival rate ([1]; 3 months, PPS (N = 58)): 28.6 | Progression-free survival rate ([1]; 6 months, FAS (N = 60), hydrochloride): 20.0% | Progression-free survival rate ([1]; 6 months, FAS (N = 60), listed as control group, hydrochloride): 20% | Progression-free survival rate ([1]; 6 months, PPS (N = 58)): 21.4 | Progression-free survival rate ([1]; 12 months, FAS (N = 60)): 0% | Progression-free survival rate ([1]; 12 months, PPS (N = 58)): 0 | disease control rate (PR+SD) ([1]; 30 subjects per group): 30% | objective response rate (ORR) ([1]; 30 subjects per group): 6.7% | Best overall response NA, number of subjects ([1]; FAS (N = 60)): 2 | Best overall response NA, percent of subjects ([1]; FAS (N = 60)): (6.7%) | Best overall response PD, number of subjects ([1]; FAS (N = 60)): 19 | Best overall response PD, percent of subjects ([1]; FAS (N = 60)): (63.3%) | Best overall response PR, percent of subjects ([1]; FAS (N = 60)): (6.7%) | Best overall response SD, number of subjects ([1]; FAS (N = 60)): 7 | Best overall response SD, percent of subjects ([1]; FAS (N = 60)): (23.3%) | Median PFS ([1]; FAS (N = 60)): 1.86 month | Number of events (%) (PFS), percent ([1]; FAS (N = 60)): 83.3% | Number of events (PFS) ([1]; FAS (N = 60)): 25 | Best overall response PR, number of subjects ([1]; FAS (N = 60), liposome 20 mg/m^2 or injection 14 mg/m^2 i.v. once every 4 weeks): 2 | Best overall response NA, number of subjects ([1]; PPS (N = 58)): 0 | Best overall response NA, percent of subjects ([1]; PPS (N = 58)): (0.0) % | Best overall response PD, number of subjects ([1]; PPS (N = 58)): 19 | Best overall response PD, percent of subjects ([1]; PPS (N = 58)): (67.9%) | Best overall response PR, number of subjects ([1]; PPS (N = 58)): 2 | Best overall response PR, percent of subjects ([1]; PPS (N = 58)): (7.1%) | Best overall response SD, number of subjects ([1]; PPS (N = 58)): 7 | Best overall response SD, percent of subjects ([1]; PPS (N = 58)): (28.6%) | Median PFS ([1]; PPS (N = 58)): 1.86 month | Number of events (%) (PFS), percent ([1]; PPS (N = 58)): 82.14% | Number of events (PFS) ([1]; PPS (N = 58)): 23 | Anemia, number of subjects [2]: 14 | Decreased neutrophil count, number of subjects [2]: 29 | Decreased platelet count, number of subjects [2]: 16 | Decreased white blood cell count, number of subjects [2]: 29 | Fever, number of subjects [2]: 3 | Incidence of fever [2]: (10.0%) | Incidence of increased alanine aminotransferase [2]: (26.70%) | Incidence of increased blood bilirubin [2]: (20.00%) | Incidence of skin hyperpigmentation [2]: 3.3% | Increased alanine aminotransferase, number of subjects [2]: 8 | Increased aspartate aminotransferase, number of subjects [2]: 16 | Increased blood bilirubin, number of subjects [2]: 6 | Increased brain natriuretic peptide, number of subjects [2]: 10 | Increased conjugated bilirubin, number of subjects [2]: 17 | Increased troponin T, number of subjects [2]: 11 | overall incidence rate of adverse events [2]: 100%
